Laboratory results published in the kinase profiling compilation of Christmann-Franck et al. (2016).

How the values were obtained:
Assay in all cases: split-luciferase competition binding
[1] = target: PRKCG (human) (UniProt P05129); conditions: compound 10.0 µM
[2] = target: AKT2 (human) (UniProt P31751); conditions: compound 10.0 µM
[3] = target: RPS6KA2 KD1 (human) (UniProt Q15349); conditions: compound 10.0 µM
[4] = target: AURKA (human) (UniProt O14965); conditions: compound 10.0 µM
[5] = target: AURKC (human) (UniProt Q9UQB9); conditions: compound 10.0 µM
[6] = target: RPS6KA5 KD1 (human) (UniProt O75582); conditions: compound 10.0 µM
[7] = target: RPS6KA6 KD1 (human) (UniProt Q9UK32); conditions: compound 10.0 µM
[8] = target: DMPK (human) (UniProt Q09013); conditions: compound 10.0 µM
[9] = target: PRKCQ (human) (UniProt Q04759); conditions: compound 10.0 µM
[10] = target: PKN1 (human) (UniProt Q16512); conditions: compound 10.0 µM
[11] = target: RPS6KA1 KD1 (human) (UniProt Q15418); conditions: compound 10.0 µM
[12] = target: SGK3 (human) (UniProt Q96BR1); conditions: compound 10.0 µM
[13] = target: RPS6KA3 KD1 (human) (UniProt P51812); conditions: compound 10.0 µM
[14] = target: AKT3 (human) (UniProt Q9Y243); conditions: compound 10.0 µM
[15] = target: AURKB (human) (UniProt Q96GD4); conditions: compound 10.0 µM
[16] = target: PDPK1 (human) (UniProt O15530); conditions: compound 10.0 µM
[17] = target: PRKCH (human) (UniProt P24723); conditions: compound 10.0 µM
[18] = target: PRKX (human) (UniProt P51817); conditions: compound 10.0 µM
[19] = target: PRKCD (human) (UniProt Q05655); conditions: compound 10.0 µM
[20] = target: AKT1 (human) (UniProt P31749); conditions: compound 10.0 µM
[21] = target: PRKACB (human) (UniProt P22694); conditions: compound 10.0 µM
[22] = target: PRKCE (human) (UniProt Q02156); conditions: compound 10.0 µM
[23] = target: STK32B (human) (UniProt Q9NY57); conditions: compound 10.0 µM
[24] = test system: PRKACA (mouse); conditions: compound 10.0 µM; accession and sequence are those of the human protein
[25] = target: SGK2 (human) (UniProt Q9HBY8); conditions: compound 10.0 µM
[26] = target: RPS6KA4 KD1 (human) (UniProt O75676); conditions: compound 10.0 µM
[27] = target: PRKCI (human) (UniProt P41743); conditions: compound 10.0 µM

Sequence of DMPK (human) (Q09013 whole entry, looked up): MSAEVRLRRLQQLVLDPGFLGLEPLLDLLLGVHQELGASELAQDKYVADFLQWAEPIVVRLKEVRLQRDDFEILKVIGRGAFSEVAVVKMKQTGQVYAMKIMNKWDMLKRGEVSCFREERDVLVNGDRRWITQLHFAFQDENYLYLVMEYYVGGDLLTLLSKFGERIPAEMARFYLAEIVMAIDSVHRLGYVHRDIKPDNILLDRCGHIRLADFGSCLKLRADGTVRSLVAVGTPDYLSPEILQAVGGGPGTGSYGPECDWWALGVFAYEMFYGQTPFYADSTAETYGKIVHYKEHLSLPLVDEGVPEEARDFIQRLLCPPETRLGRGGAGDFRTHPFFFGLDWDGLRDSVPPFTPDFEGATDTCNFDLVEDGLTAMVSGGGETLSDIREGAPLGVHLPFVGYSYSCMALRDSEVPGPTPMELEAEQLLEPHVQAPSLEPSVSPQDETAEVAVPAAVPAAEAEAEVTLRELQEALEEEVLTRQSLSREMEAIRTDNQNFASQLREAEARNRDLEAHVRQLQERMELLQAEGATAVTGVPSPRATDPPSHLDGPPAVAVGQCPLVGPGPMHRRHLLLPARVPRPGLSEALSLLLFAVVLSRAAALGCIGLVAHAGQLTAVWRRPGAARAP
Sequence of AKT3 (human) (Q9Y243 whole entry, looked up): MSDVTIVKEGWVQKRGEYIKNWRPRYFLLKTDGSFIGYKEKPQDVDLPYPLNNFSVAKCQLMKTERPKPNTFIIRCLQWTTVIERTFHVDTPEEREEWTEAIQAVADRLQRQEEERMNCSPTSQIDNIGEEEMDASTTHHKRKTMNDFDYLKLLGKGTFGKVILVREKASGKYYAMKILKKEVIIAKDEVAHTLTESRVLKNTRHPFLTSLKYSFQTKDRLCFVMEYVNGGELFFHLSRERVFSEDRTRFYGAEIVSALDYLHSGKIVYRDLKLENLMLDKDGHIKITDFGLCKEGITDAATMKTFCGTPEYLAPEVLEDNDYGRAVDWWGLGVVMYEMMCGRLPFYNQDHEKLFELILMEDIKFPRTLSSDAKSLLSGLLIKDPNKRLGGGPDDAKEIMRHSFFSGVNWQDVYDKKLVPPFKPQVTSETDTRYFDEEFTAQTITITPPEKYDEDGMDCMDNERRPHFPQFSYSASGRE
Sequence of AURKC (human) (Q9UQB9 whole entry, looked up): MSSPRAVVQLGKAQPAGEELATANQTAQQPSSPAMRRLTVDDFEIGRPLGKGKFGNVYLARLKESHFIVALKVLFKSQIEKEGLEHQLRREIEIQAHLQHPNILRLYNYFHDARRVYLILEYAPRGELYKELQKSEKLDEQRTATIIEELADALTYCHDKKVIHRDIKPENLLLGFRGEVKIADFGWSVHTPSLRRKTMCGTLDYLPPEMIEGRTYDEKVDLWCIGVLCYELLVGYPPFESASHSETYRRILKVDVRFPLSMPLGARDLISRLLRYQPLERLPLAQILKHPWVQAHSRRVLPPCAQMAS
Sequence of PKN1 (human) (Q16512 whole entry, looked up): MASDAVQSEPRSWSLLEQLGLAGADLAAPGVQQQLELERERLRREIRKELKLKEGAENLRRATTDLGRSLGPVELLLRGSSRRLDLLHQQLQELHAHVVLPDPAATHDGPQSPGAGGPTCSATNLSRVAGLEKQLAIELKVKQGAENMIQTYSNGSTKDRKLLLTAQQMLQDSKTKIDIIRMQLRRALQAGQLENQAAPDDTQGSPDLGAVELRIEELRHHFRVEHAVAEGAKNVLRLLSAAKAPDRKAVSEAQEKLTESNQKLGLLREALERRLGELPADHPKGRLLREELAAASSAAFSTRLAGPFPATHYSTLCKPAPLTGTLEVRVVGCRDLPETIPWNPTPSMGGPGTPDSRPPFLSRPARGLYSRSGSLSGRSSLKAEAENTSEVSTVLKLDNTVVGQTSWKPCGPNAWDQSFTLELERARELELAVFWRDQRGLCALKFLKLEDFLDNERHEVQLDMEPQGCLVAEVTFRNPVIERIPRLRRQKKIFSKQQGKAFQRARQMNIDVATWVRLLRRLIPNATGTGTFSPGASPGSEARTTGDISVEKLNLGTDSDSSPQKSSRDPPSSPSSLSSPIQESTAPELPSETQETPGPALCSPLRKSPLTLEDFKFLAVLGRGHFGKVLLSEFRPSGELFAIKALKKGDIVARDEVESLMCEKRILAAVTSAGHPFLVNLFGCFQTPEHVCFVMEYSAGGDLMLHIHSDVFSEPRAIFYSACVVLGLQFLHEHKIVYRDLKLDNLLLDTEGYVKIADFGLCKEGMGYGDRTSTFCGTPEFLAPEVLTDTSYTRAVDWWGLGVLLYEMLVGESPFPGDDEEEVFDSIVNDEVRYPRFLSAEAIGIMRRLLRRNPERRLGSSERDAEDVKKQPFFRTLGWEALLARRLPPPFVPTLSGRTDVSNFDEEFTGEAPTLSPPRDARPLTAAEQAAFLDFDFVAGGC
Sequence of AURKA (human) (O14965 whole entry, looked up): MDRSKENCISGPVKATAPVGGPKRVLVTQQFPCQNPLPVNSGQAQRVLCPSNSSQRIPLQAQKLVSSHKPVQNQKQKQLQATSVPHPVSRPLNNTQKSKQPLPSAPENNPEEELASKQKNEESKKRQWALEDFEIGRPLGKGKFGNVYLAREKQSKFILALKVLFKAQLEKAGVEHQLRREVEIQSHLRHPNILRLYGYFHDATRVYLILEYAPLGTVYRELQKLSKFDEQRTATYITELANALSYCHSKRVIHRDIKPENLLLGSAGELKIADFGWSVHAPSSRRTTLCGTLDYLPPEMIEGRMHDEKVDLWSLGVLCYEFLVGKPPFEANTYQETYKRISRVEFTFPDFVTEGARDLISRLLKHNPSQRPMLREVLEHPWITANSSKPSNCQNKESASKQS
Sequence of PRKX (human) (P51817 whole entry, looked up): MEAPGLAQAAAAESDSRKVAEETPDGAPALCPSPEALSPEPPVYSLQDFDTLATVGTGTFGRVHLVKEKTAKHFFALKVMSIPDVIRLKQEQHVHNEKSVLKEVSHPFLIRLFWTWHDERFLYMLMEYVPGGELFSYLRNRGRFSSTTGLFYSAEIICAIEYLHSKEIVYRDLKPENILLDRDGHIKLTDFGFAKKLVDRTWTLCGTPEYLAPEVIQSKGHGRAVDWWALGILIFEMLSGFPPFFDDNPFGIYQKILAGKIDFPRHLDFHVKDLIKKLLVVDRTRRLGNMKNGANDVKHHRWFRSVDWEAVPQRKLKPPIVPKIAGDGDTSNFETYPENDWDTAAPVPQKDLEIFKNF
Sequence of RPS6KA2 KD1 (human) (Q15349 whole entry, looked up): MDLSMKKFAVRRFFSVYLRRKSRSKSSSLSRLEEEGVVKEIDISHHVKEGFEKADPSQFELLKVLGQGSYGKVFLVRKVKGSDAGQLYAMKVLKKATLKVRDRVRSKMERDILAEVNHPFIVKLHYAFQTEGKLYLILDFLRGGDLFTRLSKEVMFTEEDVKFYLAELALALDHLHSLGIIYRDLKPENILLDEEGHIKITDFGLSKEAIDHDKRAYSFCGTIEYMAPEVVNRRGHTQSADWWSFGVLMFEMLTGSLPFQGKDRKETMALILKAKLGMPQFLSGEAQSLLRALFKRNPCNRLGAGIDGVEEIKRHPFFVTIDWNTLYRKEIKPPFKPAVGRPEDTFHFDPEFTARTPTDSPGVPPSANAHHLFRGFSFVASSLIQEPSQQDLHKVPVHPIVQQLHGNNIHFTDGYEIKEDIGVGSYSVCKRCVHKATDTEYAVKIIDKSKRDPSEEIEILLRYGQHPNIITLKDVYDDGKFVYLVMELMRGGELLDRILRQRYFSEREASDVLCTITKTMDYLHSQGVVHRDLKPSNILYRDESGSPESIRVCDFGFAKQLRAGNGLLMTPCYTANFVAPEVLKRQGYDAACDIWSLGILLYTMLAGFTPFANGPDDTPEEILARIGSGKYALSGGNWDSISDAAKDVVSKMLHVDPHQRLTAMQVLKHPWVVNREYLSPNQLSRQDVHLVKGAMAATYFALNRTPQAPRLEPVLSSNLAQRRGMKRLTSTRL
Sequence of RPS6KA1 KD1 (human) (Q15418 whole entry, looked up): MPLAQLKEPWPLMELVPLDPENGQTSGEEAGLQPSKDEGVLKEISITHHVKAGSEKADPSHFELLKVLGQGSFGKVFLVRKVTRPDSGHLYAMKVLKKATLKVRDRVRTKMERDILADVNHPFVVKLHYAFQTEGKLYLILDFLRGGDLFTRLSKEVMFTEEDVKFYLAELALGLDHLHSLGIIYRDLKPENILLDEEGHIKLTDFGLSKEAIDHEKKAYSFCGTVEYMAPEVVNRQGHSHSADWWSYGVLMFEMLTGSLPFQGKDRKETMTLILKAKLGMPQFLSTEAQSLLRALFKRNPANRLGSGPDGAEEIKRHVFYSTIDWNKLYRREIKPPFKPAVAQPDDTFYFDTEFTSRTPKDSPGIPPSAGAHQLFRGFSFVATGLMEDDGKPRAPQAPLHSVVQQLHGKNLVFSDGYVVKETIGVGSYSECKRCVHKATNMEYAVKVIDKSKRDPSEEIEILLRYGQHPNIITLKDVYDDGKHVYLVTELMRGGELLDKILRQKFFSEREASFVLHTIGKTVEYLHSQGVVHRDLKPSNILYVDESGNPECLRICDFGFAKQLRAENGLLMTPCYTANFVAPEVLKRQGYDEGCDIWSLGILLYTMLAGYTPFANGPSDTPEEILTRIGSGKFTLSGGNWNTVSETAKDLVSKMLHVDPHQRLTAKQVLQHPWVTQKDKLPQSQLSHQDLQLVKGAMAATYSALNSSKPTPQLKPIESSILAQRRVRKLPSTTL
Sequence of SGK2 (human) (Q9HBY8 whole entry, looked up): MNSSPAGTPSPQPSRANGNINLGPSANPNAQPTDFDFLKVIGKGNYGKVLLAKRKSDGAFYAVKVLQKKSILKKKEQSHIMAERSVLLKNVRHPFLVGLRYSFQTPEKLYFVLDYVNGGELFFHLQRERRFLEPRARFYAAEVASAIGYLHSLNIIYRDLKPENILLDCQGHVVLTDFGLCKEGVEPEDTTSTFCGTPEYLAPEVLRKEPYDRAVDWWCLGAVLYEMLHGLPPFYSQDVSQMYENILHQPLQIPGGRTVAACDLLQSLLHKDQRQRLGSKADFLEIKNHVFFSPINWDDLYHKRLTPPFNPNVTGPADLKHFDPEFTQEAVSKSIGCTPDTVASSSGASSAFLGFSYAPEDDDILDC

| SMILES | inhibition [1] [%] | inhibition [2] [%] | inhibition [3] [%] | inhibition [4] [%] | inhibition [5] [%] | inhibition [6] [%] | inhibition [7] [%] | inhibition [8] [%] | inhibition [9] [%] | inhibition [10] [%] | inhibition [11] [%] | inhibition [12] [%] | inhibition [13] [%] | inhibition [14] [%] | inhibition [15] [%] | inhibition [16] [%] | inhibition [17] [%] | inhibition [18] [%] | inhibition [19] [%] | inhibition [20] [%] | other results |
| --- | --- | --- | --- | --- | --- | --- | --- | --- | --- | --- | --- | --- | --- | --- | --- | --- | --- | --- | --- | --- | --- |
| O=C(Nc1cc(C(F)(F)F)cc(C(F)(F)F)c1)c1cc(Cl)ccc1O | 6 | 0 | 0 | 0 | 0 | 0 | 0 | 3 | 2 | 0 | 1 | 1 | 0 | 0 | 9 | 0 | 8 | 4 | 0 | 0 | inhibition [21]: 1%; inhibition [22]: 11%; inhibition [23]: 11%; inhibition [24]: 0%; inhibition [25]: 0%; inhibition [26]: 0%; inhibition [27]: 0% |
| CC[C@@H](CO)Nc1nc(NCc2ccccc2)c2ncn(C(C)C)c2n1 | 0 | 0 | 0 | 0 | 0 | 0 | 0 | 0 | 0 | 0 | 20 | 0 | 0 | 0 | 0 | 0 | 0 | 0 | 2 | 0 | inhibition [21]: 0%; inhibition [22]: 0%; inhibition [23]: 0%; inhibition [24]: 0%; inhibition [25]: 0%; inhibition [26]: 0%; inhibition [27]: 0% |
| Brc1c(Br)c(Br)c2[nH]nnc2c1Br | 0 | 0 | 4 | 6 | 1 | 0 | 6 | 0 | 0 | 0 | 0 | 0 | 3 | 0 | 2 | 0 | 0 | 2 | 0 | 0 | inhibition [21]: 1%; inhibition [22]: 0%; inhibition [23]: 4%; inhibition [24]: 0%; inhibition [25]: 0%; inhibition [26]: 0%; inhibition [27]: 0% |
| NC(=O)c1sc(-c2ccsc2)cc1N | 0 | 0 | 0 | 0 | 0 | 0 | 24 | 0 | 0 | 0 | 0 | 0 | 0 | 0 | 0 | 0 | 11 | 0 | 0 | 0 | inhibition [21]: 2%; inhibition [22]: 0%; inhibition [23]: 0%; inhibition [24]: 0%; inhibition [25]: 0%; inhibition [26]: 0%; inhibition [27]: 0% |
| CCN(CC)CCCCN1c2ccccc2Oc2ccc(Cl)cc21 | 0 | 0 | 7 | 0 | 16 | 0 | 0 | 7 | 4 | 6 | 0 | 0 | 0 | 0 | 8 | 0 | 0 | 7 | 0 | 0 | inhibition [21]: 0%; inhibition [22]: 3%; inhibition [23]: 0%; inhibition [24]: 0%; inhibition [25]: 0%; inhibition [26]: 0%; inhibition [27]: 2% |
| N#C/C(=C(/N)Sc1ccc(N)cc1)c1ccccc1C(F)(F)F | 0 | 0 | 0 | 0 | 0 | 0 | 0 | 0 | 0 | 6 | 0 | 4 | 0 | 0 | 1 | 0 | 0 | 11 | 1 | 0 | inhibition [21]: 0%; inhibition [22]: 0%; inhibition [23]: 0%; inhibition [24]: 2%; inhibition [25]: 0%; inhibition [26]: 0%; inhibition [27]: 0% |
